Like-named read-outs stand apart in the source and are kept apart here.
How the values were obtained:
[1] = system: larvae of the mustard beetle (Phaedon cochleariae); assay: Phaedon test (PHAECO spray treatment); conditions: Phaedon cochleariae, 168 h, read-out: activity in % (beetle larvae killed)
[2] = log P by HPLC on reversed-phase columns (EEC Directive 79/831 Annex V.A8); type: physicochemical
[3] = system: caterpillars of the armyworm (Spodoptera frugiperda); assay: Spodoptera frugiperda test (SPODFR spray treatment); type: in vivo; conditions: Spodoptera frugiperda, 168 h, read-out: activity in % (caterpillars killed)
[4] = reversed-phase C18 HPLC column, pH 2.7, HPLC reversed-phase C18, acidic range pH 2.7 (HCOOH), only or first value of the cell, read-out: log P
[5] = application rate 100 g/ha, after 7 days

chromatographic logP [2, 4] | SMILES | pest or weed control at 100 g/ha [1] [%] | chromatographic logP ([2]; pH 2.7, log P) | pest or weed control at 100 g/ha [3] [%] | further results
4.02 | Cc1cc(C#N)cc(C(=O)NCc2cccc(S(F)(F)(F)(F)F)c2)c1NC(=O)c1cc(Cn2nnc(C(F)(F)F)n2)nn1-c1ncccc1Cl [Example 63] | 100 |  |  | pest or weed control at 100 g/ha [3, 5]: 100%
4.01 | Cc1cc(C#N)cc(C(=O)NCc2ccc(S(F)(F)(F)(F)F)cc2)c1NC(=O)c1cc(Cn2nnc(C(F)(F)F)n2)nn1-c1ncccc1Cl [Example 64] | 100 |  |  | pest or weed control at 100 g/ha [3, 5]: 100%
3.74 | Cc1ccc(CNC(=O)c2cc(C#N)cc(C)c2NC(=O)c2cc(Cn3nnc(C(F)(F)F)n3)nn2-c2ccccc2Cl)cc1 [Example 78] |  |  |  | pest or weed control at 100 g/ha [3, 5]: 100%
3.21 | Cc1cc(C#N)cc(C(=O)NCc2ccccc2)c1NC(=O)c1cc(Cn2nnc(CCC(F)(F)F)n2)nn1-c1ncccc1Cl [Example 130] | 100 |  |  | 
2.84 | Cc1cc(C#N)cc(C(=O)NCc2ccccc2)c1NC(=O)c1cc(Cn2nnnc2CCC(F)(F)F)nn1-c1ncccc1Cl [Example 132] |  |  |  | 
4.36 | Cc1cc(I)cc(C(=O)NCc2cccc(OC(F)(F)F)c2)c1NC(=O)c1cc(Cn2nnc(C(F)(F)C(F)(F)F)n2)nn1-c1ncccc1Cl [Example 147] | 100 |  |  | 
3.37 | Cc1cc(C#N)cc(C(=O)NCc2ccccc2OC(F)(F)F)c1NC(=O)c1cc(Cn2nnc(C(F)F)n2)nn1-c1ncccc1Cl [Example 162] | 100 |  |  | 
3.07 | Cc1cc(C#N)cc(C(=O)NCc2ccccc2OC(F)F)c1NC(=O)c1cc(Cn2nnc(C(F)F)n2)nn1-c1ncccc1Cl [Example 177] |  |  |  | 
3.55 | Cc1cc(C#N)cc(C(=O)NCc2ccccc2OC(F)F)c1NC(=O)c1cc(Cn2nnc(C(F)(F)F)n2)nn1-c1ncccc1Cl [Example 179] |  |  |  | 
4.46 | Cc1cc(C#N)cc(C(=O)NCc2ccc(OC(F)(F)F)cc2)c1NC(=O)c1cc(Cn2nnc(C(F)(F)F)n2)nn1-c1c(Cl)cccc1Cl [Example 181] |  |  |  | pest or weed control at 100 g/ha [3, 5]: 100%
3.94 | Cc1ccc(Cl)c(C(=O)NCc2cccc(OC(F)(F)F)c2)c1NC(=O)c1cc(Cn2nnc(C(F)(F)F)n2)nn1-c1ncccc1Cl [Example 200] |  |  |  | 
4.13 | O=C(NCc1cccc(Cl)c1)c1cc2ccccc2c(Cl)c1NC(=O)c1cc(Cn2nnc(C(F)(F)F)n2)nn1-c1ncccc1Cl [Example 219] |  |  |  | 
4.38 | O=C(NCc1cccc(OC(F)(F)F)c1)c1cc2ccccc2c(Cl)c1NC(=O)c1cc(Cn2nnc(C(F)(F)F)n2)nn1-c1ncccc1Cl [Example 222] |  |  |  | pest or weed control at 100 g/ha [3, 5]: 100%
2.94 | CCCc1cccc(CNC(=O)c2cc(Cl)cc(C)c2NC(=O)c2cc(Cn3nnc(C(F)(F)F)n3)nn2-c2ncccc2Cl)n1 [Example 229] | 100 |  |  | 
3.94 | Cc1cc(Cl)cc(C(=O)NCc2cc3ccccc3nc2Cl)c1NC(=O)c1cc(Cn2nnc(C(F)(F)F)n2)nn1-c1ncccc1Cl [Example 237] |  |  |  | 

Second part, the compound before the results:

SMILES | chromatographic logP [2, 4] | pest or weed control at 100 g/ha [1] [%] | chromatographic logP ([2]; pH 2.7, log P) | pest or weed control at 100 g/ha [3] [%] | further results
O=C(NC1COC1)c1cc(Cl)cc(Cl)c1NC(=O)c1cc(Cn2nnc(C(F)(F)F)n2)nn1-c1ncccc1Cl [Example 5] |  | 100 | 2.79 | 100 | 
Cc1cc(Cl)cc(C(=O)NC2COC2)c1NC(=O)c1cc(Cn2nc(C(F)(F)F)nc2C(F)(F)F)nn1-c1ncccc1Cl [Example 8] |  | 100 | 3.24 | 100 | 
Cc1cc(Cl)cc(C(=O)NC2COC2)c1NC(=O)c1cc(Cn2nnc(C(F)(F)C(F)(F)F)n2)nn1-c1ncccc1Cl [Example 9] |  | 100 | 3.21 | 100 | 
Cc1cc(C#N)cc(C(=O)NC2CSC2)c1NC(=O)c1cc(Cn2nnc(C(F)(F)C(F)(F)F)n2)nn1-c1ncccc1Cl [Example 11] |  | 100 | 3.43 | 100 | 
Cc1cc(C#N)cc(C(=O)NC2COC2)c1NC(=O)c1cc(Cn2nnnc2C(F)(F)F)nn1-c1ncccc1Cl [Example 12] |  | 100 | 2.17 | 100 | 
Cc1cc(C#N)cc(C(=O)NC2COC2)c1NC(=O)c1cc(Cn2nc(C(F)(F)F)nc2C(F)(F)F)nn1-c1ncccc1Cl [Example 13] |  | 100 | 2.95 | 100 | 
Cc1cc(Cl)cc(C(=O)NC2COC2)c1NC(=O)c1cc(Cn2nnc(C(F)F)n2)nn1-c1ncccc1Cl [Example 16] |  |  | 2.37 | 100 | 
Cc1cc(C#N)cc(C(=O)NC2COC2)c1NC(=O)c1cc(Cn2nnc(C(F)F)n2)nn1-c1ncccc1Cl [Example 17] |  |  | 2.05 | 83 | 
O=C(NC1COC1)c1cc(Cl)cc(Cl)c1NC(=O)c1cc(Cn2nnc(C(F)F)n2)nn1-c1ncccc1Cl [Example 19] |  |  | 2.37 | 100 | 
Cc1cc(Cl)cc(C(=O)NC2=NCCS2)c1NC(=O)c1cc(Cn2nnc(C(F)(F)C(F)(F)F)n2)nn1-c1ncccc1Cl [Example 47] |  | 100 | 3.9 | 100 | log P (second value after the slash) ([2]; pH 2.7): 3.58
Cc1cc(C#N)cc(C(=O)NC2CCS(=O)(=O)C2)c1NC(=O)c1cc(Cn2nnc(C(F)(F)F)n2)nn1-c1c(F)cccc1F (centres unmarked) [Example 52] | 2.75 | 100 |  |  | pest or weed control at 100 g/ha [3, 5]: 100%
Cc1cc(C#N)cc(C(=O)NC2CS(=O)(=O)CC2O)c1NC(=O)c1cc(Cn2nnc(C(F)(F)F)n2)nn1-c1ccccc1Cl (centres unmarked) [Example 53] | 2.64 |  |  |  | 
Cc1cc(Cl)cc(C(=O)NC2CCN(C)CC2)c1NC(=O)c1cc(Cn2nnc(C(F)(F)F)n2)nn1-c1ncccc1Cl [Example 55] |  |  | 4.14 | 100 | 
Cc1cc(Cl)cc(C(=O)NC2CCSCC2)c1NC(=O)c1cc(Cn2nnc(C(F)(F)F)n2)nn1-c1ncccc1Cl [Example 56] |  | 100 | 3.58 | 100 | 
Cc1cc(C#N)cc(C(=O)NC2CCN(C)CC2)c1NC(=O)c1cc(Cn2nnc(C(F)(F)F)n2)nn1-c1ccccc1Cl [Example 59] | 1.79 |  |  |  | 
Cc1cc(Cl)cc(C(=O)NCC2CCCO2)c1NC(=O)c1cc(Cn2nnc(C(F)(F)F)n2)nn1-c1ncccc1Cl (centres unmarked) [Example 60] |  |  | 3.25 | 100 | 
Cc1cc(Cl)cc(C(=O)NCC2(C)CCCO2)c1NC(=O)c1cc(Cn2nnc(C(F)(F)F)n2)nn1-c1ncccc1Cl (centres unmarked) [Example 61] |  | 100 | 3.48 | 100 | 

SMILES | chromatographic logP [2, 4] | pest or weed control at 100 g/ha [1] [%] | chromatographic logP ([2]; pH 2.7, log P) | pest or weed control at 100 g/ha [3] [%] | further results
Cc1cc(Cl)cc(C(=O)NCc2ccccc2)c1NC(=O)c1cc(Cn2nnc(CCC(F)(F)F)n2)nn1-c1ncccc1Cl [Example 79] |  |  | 3.56 |  | 
Cc1cc(I)cc(C(=O)NCc2ccccc2)c1NC(=O)c1cc(Cn2nnc(CCC(F)(F)F)n2)nn1-c1ncccc1Cl [Example 80] |  |  | 3.78 |  | 
Cc1ccc(CNC(=O)c2cc(Cl)cc(C)c2NC(=O)c2cc(Cn3nnc(C(F)(F)F)n3)nn2-c2ncccc2Cl)cc1 [Example 90] |  |  | 4.08 | 100 | 
Cc1cc(Cl)cc(C(=O)NCc2ccccc2)c1NC(=O)c1cc(Cn2nnnc2CCC(F)(F)F)nn1-c1ncccc1Cl [Example 131] |  |  | 3.2 |  | 
Cc1cc(I)cc(C(=O)NCc2ccccc2)c1NC(=O)c1cc(Cn2nnnc2CCC(F)(F)F)nn1-c1ncccc1Cl [Example 133] |  |  | 3.45 |  | 
Cc1cc(I)cc(C(=O)NCc2ccccc2)c1NC(=O)c1cc(Cn2nc(C(F)(F)F)c(C(F)(F)F)n2)nn1-c1ncccc1Cl [Example 135] | 4.75 |  |  |  | 
Cc1cc(Cl)cc(C(=O)NC(C)c2cc(Cl)cc(Cl)c2)c1NC(=O)c1cc(Cn2nnc(C(F)(F)F)n2)nn1-c1ncccc1Cl (centres unmarked) [Example 145] | 4.66 |  |  |  | 
Cc1cc(Cl)cc(C(=O)NCc2cccc(OC(F)F)c2)c1NC(=O)c1cc(Cn2nnc(C(F)F)n2)nn1-c1ncccc1Cl [Example 176] | 3.42 |  |  |  | 
Cc1ccc(Cl)c(C(=O)NCc2ccc(Cl)cc2)c1NC(=O)c1cc(Cn2nnc(C(F)(F)F)n2)nn1-c1ncccc1Cl [Example 198] |  |  | 3.68 |  | 
Cc1ccc(Cl)c(C(=O)NCc2ccccc2OC(F)(F)F)c1NC(=O)c1cc(Cn2nnc(C(F)(F)F)n2)nn1-c1ncccc1Cl [Example 199] | 3.92 |  |  |  | 
Cc1ccc(Cl)c(C(=O)NCc2ccc(OC(F)(F)F)cc2)c1NC(=O)c1cc(Cn2nnc(C(F)(F)F)n2)nn1-c1ncccc1Cl [Example 201] | 3.93 |  |  |  | 
O=C(NCc1ccccc1Cl)c1cc2ccccc2c(Cl)c1NC(=O)c1cc(Cn2nnc(C(F)(F)F)n2)nn1-c1ncccc1Cl [Example 218] | 4.1 |  |  |  | 
O=C(NCc1ccc(Cl)cc1)c1cc2ccccc2c(Cl)c1NC(=O)c1cc(Cn2nnc(C(F)(F)F)n2)nn1-c1ncccc1Cl [Example 220] | 4.11 |  |  |  | 
O=C(NCc1ccccc1OC(F)(F)F)c1cc2ccccc2c(Cl)c1NC(=O)c1cc(Cn2nnc(C(F)(F)F)n2)nn1-c1ncccc1Cl [Example 221] | 4.36 |  |  |  | pest or weed control at 100 g/ha [3, 5]: 100%
O=C(NCc1ccc(OC(F)(F)F)cc1)c1cc2ccccc2c(Cl)c1NC(=O)c1cc(Cn2nnc(C(F)(F)F)n2)nn1-c1ncccc1Cl [Example 223] | 4.36 |  |  |  | pest or weed control at 100 g/ha [3, 5]: 100%
Cc1ccc(CNC(=O)c2cc(Cl)cc(C)c2NC(=O)c2cc(Cn3nnc(C(F)(F)F)n3)nn2-c2ncccc2Cl)nc1C [Example 227] |  |  | 2.1 | 100 | 

— patent US8791143B2, “Anthranilic diamide derivatives having cyclic side-chains” (priority 2010, dated 2014)
